Reference: article PMC10786919, “Design-rules for stapled peptides with in vivo activity and their application to Mdm2/X antagonists” (Nature Communications, 2024)
≈ marks a conversion by molar mass, not a printed value. Read-outs that look alike come from different tables or passages of the source. Positions of bridges follow the written chain, without caps; N, C: chain ends. Non-standard residues stand in square brackets, D forms with d. Residues, ends and D or L forms follow the SMILES beside them. Lys(N3) = [N-]=[N+]=NCCCC[C@H](N)C(=O)O; R8 = C=CCCCCCC[C@@](C)(N)C(=O)O; Cba = N[C@@H](CC1CCC1)C(=O)O; S5 = C=CCCC[C@](C)(N)C(=O)O; βAla = NCCC(=O)O

Tests used:
[1] = Solubility assay (kinetic solubility, PBS pH 7); assay type: physicochemical; details: for solubility kinetic: pH 7, aqueous buffer, kinetic from dmso stock, read-out: Solubility
Summary of the method: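 Next, measure peak areas of sample and standard. Finally, multiply their ratio by the standard concentration to obtain solubility (µM).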

[2] = test system: CellSensor p53RE-bla HCT-116 Cell Line; details: 72 h
Summary of the method: (§1)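 Compound dilution series (10 points, 3-fold, 10 mM top stock in DMSO) tested on overnight-plated Ca Ski cells in RPMI1640/10% FBS and on blasticidin-selected p53RE-bla HCT-116 cells in McCoy's 5A; read-out was CellTiter-Glo 2.0 luminescence after room-temperature equilibration.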

[3] = test system: Ca Ski cell line; details: 72 h
Summary of the method: as §1

[4] = Lactate dehydrogenase (LDH) release assay; assay type: cell-based
Summary of the method: (§2)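 LDH release, fluorometric membrane-integrity read-out; HCT116 with stable p53-responsive β-lactamase reporter; 8000 cells/well; 0.5% DMSO final; geometric mean, n≥3 biological replicates.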

[5] = Experimental LogD (partition coefficient); details: for logD: not stated, Partition Coeff LogD
[6] = EPSA; assay type: physicochemical
[7] = in vitro
Summary of the method: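 Azido-peptide permeability was read as loss of NanoBRET signal (donor 450 nm, acceptor 610 nm) after adding NanoBret618-azide at 10 μM final.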

[8] = test system: HCT116 cells; test: Lactate dehydrogenase (LDH) release assay; assay type: cell-based
Summary of the method: as §2

[9] = test system: Jump-In T-REx CHO-K1 BLA cells; test: cells; assay type: cell-based; details: Supplementary Table 1; 0% serum, 4 hours
Method: This assay was based on Jump-In™ T-REx™ CHO-K1 BLA cells containing a stably integrated β-lactamase under the control of an inducible cytomegalovirus (CMV) promoter. Cells were maintained in Dulbecco’s […] Eagle Medium (DMEM) with 10% fetal bovine serum (FBS), Blasticidin, and Penicillin/Streptomycin and then transferred to 1.5 ml freezing vials and stored under liquid nitrogen in growth media containing 5% DMSO. […] Cells were seeded into a 384-well plate at a density of 4000 cells per well. Peptides were then dispensed to each well using a liquid handler, ECHO 555 and incubated for 16 h. The final working concentration of DMSO was 0.5%. β-lactamase activity was detected using the ToxBLAzer Dual Screen (Invitrogen), as per the manufacturer’s instructions. Measurements were carried out using the Envision multiplate reader (Perkin–Elmer). Counterscreen activity was defined as the amount of β-lactamase activity induced by tetracycline. Measurements were taken a minimum of three times (biological replicates) and values are reported as geometric means of the replicates.

[10] = Nanoclick permeability assay EC50

Row | Compound | solubility kinetic ([1]; pH 7, PBS) [µM] | EC50 [2] [µM] | EC50 [3] [µM] | EC50 ([4]; LDH: Cytotoxicity assay: EC50) [µM] | logD [5] | EPSA ([6]; EPSA) [A^2] | cell entry EC50 [7, 10] [µM] | EPSA [6] | EC50 ([4]; 0% FBS 4Hr, read-out: LDH: Cytotoxicity assay: EC50) [µM] | EC50 ([4]; 10% FBS 16Hr, read-out: LDH: Cytotoxicity assay: EC50) [µM] | LDH: Cytotoxicity assay: % Effect ([8]; 0% FBS 4Hr) [%] | LDH: Cytotoxicity assay: % Effect ([8]; 10% FBS 16Hr) [%] | off-target effects (LDH release and/or counterscreen activity) [9] | cell entry EC50 [7] [µM] | Solubility [1] | Solubility ([1]; pH 7, PBS) | Partition Coeff LogD [5]
1 | CC(=O)N[C@@H](CCCCN=[N+]=[N-])C(=O)NCCC(=O)N[C@@H](CC(C)C)C(=O)N[C@H](C(=O)N[C@@H](Cc1ccccc1)C(=O)N[C@]1(C)CCCCCCC=CCCC[C@@](C)(C(=O)N[C@@H](CO)C(=O)N[C@@H](C)C(=O)N[C@@H](C)C(N)=O)NC(=O)[C@H](CC2CCC2)NC(=O)[C@H](CCC(N)=O)NC(=O)[C@H](C)NC(=O)[C@H](Cc2c[nH]c3ccccc23)NC(=O)[C@H](CCC(=O)O)NC(=O)[C@H](CCC(=O)O)NC1=O)[C@@H](C)O [MP-842] | 157 (≈ 304 µg/mL) | 23.4 | > 49.8 | > 50.7 | 2.25 | 216 | 0.297 | – | – | – | – | – | – | – | – | – | –
2 | CC(=O)N[C@@H](CCCCN=[N+]=[N-])C(=O)NCCC(=O)N[C@@H](CC(C)C)C(=O)N[C@H](C(=O)N[C@@H](Cc1ccccc1)C(=O)N[C@]1(C)CCCCCCC=CCCC[C@@](C)(C(=O)N[C@@H](C)C(=O)N[C@@H](C)C(=O)N[C@@H](Cc2ccccc2)C(=O)N[C@@H](C)C(=O)N[C@@H](C)C(=O)N[C@H](Cc2ccccc2)C(N)=O)NC(=O)[C@H](CC2CCC2)NC(=O)[C@H](CCC(N)=O)NC(=O)[C@H](C)NC(=O)[C@H](Cc2c[nH]c3ccccc23)NC(=O)[C@H](Cc2ccc(O)cc2)NC(=O)[C@H](CCC(=O)O)NC1=O)[C@@H](C)O [MP-063] (Ac-[Lys(N3)][βAla]LTF[R8]EYWAQ[Cba][S5]AAFAA[dF]-NH2; staple 6-13) | 9 (≈ 20.9 µg/mL) | 2.78 | > 49.8 | > 50.7 | – | 199 | 0.394 | – | – | – | – | – | – | – | – | – | –
3 | CC(=O)N[C@@H](CCCCN=[N+]=[N-])C(=O)NCCC(=O)N[C@@H](CC(C)C)C(=O)N[C@H](C(=O)N[C@@H](Cc1ccccc1)C(=O)N[C@]1(C)CCCCCCC=CCCC[C@@](C)(C(=O)N[C@@H](CO)C(=O)N[C@@H](C)C(=O)N[C@@H](CCC(=O)O)C(N)=O)NC(=O)[C@H](CC2CCC2)NC(=O)[C@H](CCC(N)=O)NC(=O)[C@H](C)NC(=O)[C@H](Cc2c[nH]c3ccccc23)NC(=O)[C@H](Cc2ccc(O)cc2)NC(=O)[C@H](CCC(=O)O)NC1=O)[C@@H](C)O [MP-524] | 148 (≈ 300 µg/mL) | 1.34 | > 49.8 | > 50.7 | 2.1 | – | 1.32 | Poorly Behaved | – | – | – | – | – | – | – | – | –
4 | CC(=O)N[C@@H](CCCCN=[N+]=[N-])C(=O)NCCC(=O)N[C@@H](CC(C)C)C(=O)N[C@H](C(=O)N[C@@H](Cc1ccccc1)C(=O)N[C@]1(C)CCCCCCC=CCCC[C@@](C)(C(=O)N[C@@H](CO)C(=O)N[C@@H](C)C(=O)N[C@@H](C)C(N)=O)NC(=O)[C@H](CCC(=O)O)NC(=O)[C@H](CCC(N)=O)NC(=O)[C@H](C)NC(=O)[C@H](Cc2c[nH]c3ccccc23)NC(=O)[C@H](Cc2ccc(O)cc2)NC(=O)[C@H](CCC(=O)O)NC1=O)[C@@H](C)O [MP-841] | 162 (≈ 320 µg/mL) | – | > 49.8 | > 50.7 | 2.06 | 255 | 0.878 | – | – | – | – | – | – | – | – | – | –
5 | CC(=O)N[C@@H](CCCCN=[N+]=[N-])C(=O)NCCC(=O)N[C@@H](CC(C)C)C(=O)N[C@H](C(=O)N[C@@H](Cc1ccccc1)C(=O)N[C@]1(C)CCCCCCC=CCCC[C@@](C)(C(=O)N[C@@H](C)C(=O)N[C@@H](C)C(=O)N[C@@H](Cc2ccccc2)C(=O)N[C@@H](C)C(=O)N[C@@H](C)C(=O)N[C@H](C)C(N)=O)NC(=O)[C@H](CC2CCC2)NC(=O)[C@H](CCC(N)=O)NC(=O)[C@H](C)NC(=O)[C@H](Cc2c[nH]c3ccccc23)NC(=O)[C@H](Cc2ccc(O)cc2)NC(=O)[C@H](CCC(=O)O)NC1=O)[C@@H](C)O [MP-228] (Ac-[Lys(N3)][βAla]LTF[R8]EYWAQ[Cba][S5]AAFAA[dA]-NH2; staple 6-13) | 2 (≈ 4.49 µg/mL) | – | 30.7 | > 50.7 | – | 199 | 2.51 | – | – | – | – | – | – | – | – | – | –
6 | CC(=O)N[C@@H](CCCCN=[N+]=[N-])C(=O)NCCC(=O)N[C@@H](CC(C)C)C(=O)N[C@H](C(=O)N[C@@H](Cc1ccccc1)C(=O)N[C@]1(C)CCCCCCC=CCCC[C@@](C)(C(=O)N[C@@H](CCC(=O)O)C(=O)N[C@@H](CCC(=O)O)C(=O)N[C@@H](C)C(N)=O)NC(=O)[C@H](CC2CCC2)NC(=O)[C@H](CCC(N)=O)NC(=O)[C@H](CCC(=O)O)NC(=O)[C@H](Cc2c[nH]c3ccccc23)NC(=O)[C@H](Cc2ccc(O)cc2)NC(=O)[C@H](CCC(=O)O)NC1=O)[C@@H](C)O [MP-3684] (Ac-[Lys(N3)][βAla]LTF[R8]EYWEQ[Cba][S5]EEA-NH2; staple 6-13) | – | – | – | – | 1.89 | – | – | Poorly Behaved | > 50.7 | > 50.7 | 7.239 | 0.1213 | none | 3.88 | – | – | –
7 | CC(=O)N[C@@H](CCCCN=[N+]=[N-])C(=O)NCCC(=O)N[C@@H](CC(C)C)C(=O)N[C@H](C(=O)N[C@@H](CCC(=O)O)C(=O)N[C@]1(C)CCCCCCC=CCCC[C@@](C)(C(=O)N[C@@H](CO)C(=O)N[C@@H](C)C(=O)N[C@@H](C)C(N)=O)NC(=O)[C@H](CC2CCC2)NC(=O)[C@H](CCC(N)=O)NC(=O)[C@H](C)NC(=O)[C@H](Cc2c[nH]c3ccccc23)NC(=O)[C@H](Cc2ccc(O)cc2)NC(=O)[C@H](CCC(=O)O)NC1=O)[C@@H](C)O [MP-843] | 151 (≈ 295 µg/mL) | – | > 49.8 | > 50.7 | 1.78 | 208 | 0.597 | – | – | – | – | – | – | – | – | – | –
8 | CC(=O)N[C@@H](CCCCN=[N+]=[N-])C(=O)NCCC(=O)N[C@@H](CC(C)C)C(=O)N[C@H](C(=O)N[C@@H](Cc1ccccc1)C(=O)N[C@]1(C)CCCCCCC=CCCC[C@@](C)(C(=O)N[C@@H](CO)C(=O)N[C@@H](C)C(=O)N[C@@H](C)C(N)=O)NC(=O)[C@H](CC2CCC2)NC(=O)[C@H](CCC(N)=O)NC(=O)[C@H](C)NC(=O)[C@H](CCC(=O)O)NC(=O)[C@H](Cc2ccc(O)cc2)NC(=O)[C@H](CCC(=O)O)NC1=O)[C@@H](C)O [MP-956] | 175 (≈ 335 µg/mL) | – | > 49.8 | > 50.7 | 1.7 | 198 | 9.22 | – | – | – | – | – | – | – | – | – | –
9 | CC(=O)N[C@@H](CCCCN=[N+]=[N-])C(=O)NCCC(=O)N[C@@H](CC(C)C)C(=O)N[C@H](C(=O)N[C@@H](Cc1ccccc1)C(=O)N[C@]1(C)CCCCCCC=CCCC[C@@](C)(C(=O)N[C@@H](C)C(=O)N[C@@H](C)C(=O)N[C@@H](C)C(=O)N[C@@H](C)C(=O)N[C@@H](C)C(=O)N[C@@H](Cc2ccccc2)C(N)=O)NC(=O)[C@H](CC2CCC2)NC(=O)[C@H](CCC(N)=O)NC(=O)[C@H](C)NC(=O)[C@H](Cc2c[nH]c3ccccc23)NC(=O)[C@H](Cc2ccc(O)cc2)NC(=O)[C@H](CCC(=O)O)NC1=O)[C@@H](C)O [MP-060] (Ac-[Lys(N3)][βAla]LTF[R8]EYWAQ[Cba][S5]AAAAAF-NH2; staple 6-13) | – | – | > 49.8 | > 50.7 | – | 198 | 1.09 | – | – | – | – | – | – | – | P.B. | Poorly Behaved | Poorly Behaved
